The record followed here is US20070092939A1, “HUMAN IMMUNODEFICIENCY VIRUS ENTRY INHIBITOR ASSAY” (priority 2003, published 2007).

The subject of the test is co-cultivation-induced fusion between HL2/3 and HeLa-CD4-LTR-β-gal cells. As to the kind of experiment: Cell fusion assay by co-cultivation of HL2/3 and HeLa-CD4-LTR-β-gal cells, β-galactosidase chemiluminescence readout. It counts as cell-based. Conditions: for Response Chemiluminescence / Response Inhibition (%): Table 1; for Chemiluminescence / Inhibition: Table 2 specificity test. The protocol:
Depending on the culture vessel (T75 or T175), 0.5−2.0×10^6 HL2/3 or HeLa-CD4-LTR-β-gal cells were seeded into their respective Propagation Medium (for HL2/3, DMEM containing 10% FBS and 0.5 mg/ml G418; for HeLa-CD4-LTR-β-gal, DMEM containing 10% FBS, 0.2 mg/ml G418, and 0.1 mg/ml hygromycin B). Culture at 37° C. with 95% air/5% CO2 until the cultures reach 60% confluency, but can not exceed 95% confluency.
Remove medium by aspiration with 2-ml of glass pipette. Add 5 ml (for T75 flask) or 10 ml (for T175 flask) of the cell dissociation buffer (CDB). Incubate at room temperature for at least 20 minutes. While waiting, prepare potential entry inhibitor (e.g. TNX-355) with cold Assay Medium (DMEM supplemented with 10% FBS) for treatment. Harvest cells in a 15-ml (for T75) or 50-ml (for T175) conical centrifuge tube by repeated pipetting. Determine cell density and viability in 100 μl of samples with Trypan Blue Exclusion method. Centrifuge at 1000 rpm (or 201×g) for 5 minutes. Discard supernatant and resuspend cells in pre-warmed Assay Medium at a cell density of 1×10^6 cells/ml (for HeLa-CD4-LTR-β-gal cells) or 2×10^6 cells/ml (for HL2/3 cells).
Further dilute HeLa-CD4-LTR-β-gal cells to 0.25×10^6 cells/ml with pre-warmed Assay Medium, and pipette 90 μl to each well of a 96-well clear-bottom white-wall plate using a 12-channel pipet. Add 20 μl of drug or medium to each well as needed. Further dilute HL2/3 cells to 0.5×10^6 cells/ml with pre-warmed Assay Medium, and pipette 90 μl to each well of a 96-well clear-bottom white-wall plate using a 12-channel pipet. Total cells in each well is 6.75×10^4 cells at a ratio of 2:1 (HL2/3 to HeLa-CD4-LTR-β-gal cells). Culture cells at 37° C. with 95% air/5% CO2 for about 24 hours.
Remove the medium row by row, immediately followed by addition of 50 μl/well of Lysis Solution (Roche Lysis Buffer containing protease inhibitors). Incubate for 60 minutes at 15-25° C. with mild shaking (200-300 rpm). While waiting, dilute 1 volume of concentrated substrate with 99 volumes of Reaction Buffer to make working substrate solution.
Add 100 μl of the substrate reagent to each well row by row using 12-channel pipette. Incubate for 90 minutes at room temperature with mild shaking (200-300 rpm). While waiting, bring proper volume of Accelerator II solution to room temperature. Add 50 μl of the Accelerator II to each well row by row using 12-channel pipette. Measure light emission with a microplate luminometer. The chemiluminescence readout is reported as light units per second.
The inhibition of HIV entry inhibitors, including TNX-355, T20, SIM.4, and sCD4, was tested on the co-cultivation-induced fusion between the two cell lines (HL2/3 to HeLa-CD4-LTR-β-gal cells). TNX-355 is a humanized anti-CD4 domain 2 antibody, T20 a synthetic oligopeptide mimicking the […] HR-2 region, SIM.4 a monoclonal anti-CD4 domain 1 antibody, and sCD4 is a soluble extracellular portion of CD4 molecule. Multiple levels of each reagent were tested following the procedures described in the Materials and Methods.
Assay specificity was addressed by comparing the inhibitory activity of TNX-355 to those of two structurally similar but functionally irrelevant antibodies. These antibodies are TNX-224 (a humanized antibody IgG4 which differs in complementary determining regions (CDR) but share a majority of sequence homology to TNX-355) and TNX-901 (a humanized antibody IgG1).

Take “TNX-355: humanized anti-CD4 domain 2 antibody, IgG4”: the “Response Chemiluminescence” value (reagent 0.1 ng/ml) was determined as 39185 ± 1260.79 light units per second; the “Response Chemiluminescence” value (reagent 10 ng/ml) is 34525 ± 2281.39 light units per second; the “Response Chemiluminescence” value (reagent 25 ng/ml) was 29152 ± 2492.87 light units per second; the “Response Chemiluminescence” value (reagent 50 ng/ml) came out at 23993 ± 650.74 light units per second; the “Response Chemiluminescence” value (reagent 100 ng/ml) was found to be 18724 ± 989.73 light units per second; the “Response Chemiluminescence” value (reagent 200 ng/ml) turned out to be 12312 ± 1516.60 light units per second. Further, the “Response Chemiluminescence” value (reagent 1000 ng/ml) came out at 6896 ± 383.09 light units per second and the “Response Chemiluminescence” value (reagent 10000 ng/ml, about 24 hours co-cultivation) turned out to be 4978 ± 669.32 light units per second. For the same molecule, the “Response Inhibition (%)” value is, setting by setting: (reagent 0.1 ng/ml) 23.2%; (reagent 10 ng/ml) 33.7%; (reagent 25 ng/ml) 45.8%; (reagent 50 ng/ml) 57.3%; (reagent 100 ng/ml) 69.2%; (reagent 200 ng/ml) 83.5%. Besides, the “Response Inhibition (%)” value runs as follows: (reagent 1000 ng/ml) 95.7%; (reagent 10000 ng/ml) 100.0%. Besides, the Chemiluminescence is, setting by setting: (antibody amount 0.025 μg/ml) 34121 ± 714.43 light units per second; (antibody amount 1.0 μg/ml) 5135 ± 432.41 light units per second. The Inhibition is, setting by setting: (antibody amount 0.025 μg/ml) 20%; (antibody amount 1.0 μg/ml) 88%.

B1: TNX-901: humanized antibody IgG1; functionally irrelevant control (antibody, chains of the INN, looked up, V domains shown)
VH: QVQLVQSGAEVKKPGASVKVSCKASGYTFSMYWLEWVRQAPGHGLEWVGEISPGTFTTNYNEKFKARATFTADTSTNTAYMELSSLRSEDTAVYYCARFSHFSGSNYDYFDYWGQGTLVTVSS
VL: DILLTQSPGTLSLSPGERATLSCRASQSIGTNIHWYQQKPGQAPRLLIKYASESISGIPSRFSGSGSGTDFTLTISRLEPEDFAMYYCQQSDSWPTTFGQGTKVEIK
For the setting “antibody amount 0.025 μg/ml”, B1 displayed a Chemiluminescence of 42629 ± 664.10 light units per second and an Inhibition of 0%. Under “antibody amount 10 μg/ml”, this molecule came in with a Chemiluminescence of 42847 ± 1429.78 light units per second and an Inhibition of 0%.
